These results are taken from patent US7173004B2, “Macrocyclic isoquinoline peptide inhibitors of hepatitis C virus” (Bristol-Myers Squibb Company, priority 2003, dated 2007).

In the assay the target is T1, HCV NS3/4A protease complex, BMS strain (genotype 1a) (UniProt P27958, C1454S/C1711G, species not given/STRAIN_BMS).
T1 construct: b1001: DNA encoding the recombinant HCV NS3/4A protease complex (amino acids 1027 to 1711) ... a three-lysine solubilizing tail was added at the 3′-end of the NS4A coding region; fused on or other part: Three-lysine solubilising tail at the C-terminus of NS4A; A His tag is implied by the pET21b vector and Ni-NTA purification
Kind of assay: Recombinant HCV NS3/4A protease complex FRET peptide assay, BMS strain. The format is biochemical. As to conditions: NS3/4A BMS strain; activity range symbols. A digest of the protocol:
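Recombinant NS3/4A (aa 1027–1711) from H77C, J4L6S or BMS strains, with C1454S and C1711G mutations and three-lysine tail, expressed in E. coli and Ni-NTA/gel-filtration purified to >90%. Inhibition of cleavage of a FRET peptide substrate measured.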
`COc1ccc2c(O[C@@H]3C[C@H]4C(=O)N[C@]5(C(=O)NS(=O)(=O)C6CC6)C[C@H]5/C=C\CCCSC(C)(C)[C@H](NC(=O)OC(C)(C)C)C(=O)N4C3)nccc2c1` [Compound 80, (1S,4R,6S,14R,18R)-[7-cis-4-Cyclopropanesulfonylaminocarbonyl-13,13-dimethyl-18-(6-methoxyisoquinolin-1-yloxy)-2,15-dioxo-12-thia-3,16-diaza-tricyclo[14.3.0.0^4,6]nonadec-7-en-14-yl]carbamic acid, tert-butyl ester]: the half-maximal inhibitory concentration (IC50) (commonly the concentration that gives 50% inhibition) was below 50 nM.

For the compound `COc1ccc2c(OC3CC4C(=O)NC5(C(=O)NS(=O)(=O)C6CC6)CC5C=CCCCSC(C)(C)C(NC(=O)NC(C)(C)C)C(=O)N4C3)nccc2c1` (centres unmarked) [Compound 81], the IC50 was below 50 nM.

As to `COc1ccc2c(OC3CC4C(=O)NC5(C(=O)NS(=O)(=O)C6CC6)CC5C=CCCCSC(C)(C)C(NC(=O)NC5CCCC5)C(=O)N4C3)nccc2c1` (centres unmarked) [Compound 82], the IC50 is below 50 nM.

In the case of `COc1ccc2c(OC3CC4C(=O)NC5(C(=O)NS(=O)(=O)C6CC6)CC5C=CCCCSC(C)(C)C(N)C(=O)N4C3)nccc2c1` (centres unmarked) [Compound 83], the half-inhibitory concentration (IC50) was 500 to 5000 nM.

Take `COc1ccc2c(O[C@@H]3C[C@H]4C(=O)N[C@]5(C(=O)NS(=O)(=O)C6CC6)C[C@H]5/C=C\CCCOC[C@H](NC(=O)OC(C)(C)C)C(=O)N4C3)nccc2c1` [Compound 85, (1S,4R,6S,14S,18R)-[7-cis-4-Cyclopropanesulfonylaminocarbonyl-18-(6-methoxy-isoquinolin-1-yloxy)-2,15-dioxo-12-oxa-3,16-diaza-tricyclo[14.3.0.0^4,6]nonadec-7-en-14-yl]-carbamic acid, tert-butyl ester]: the concentration for half-maximal inhibition (IC50) is below 50 nM.

As to `COc1ccc2c(OC3CC4C(=O)NC5(C(=O)NS(=O)(=O)C6CC6)CC5C=CCCCOCC(NC(=O)NC(C)(C)C)C(=O)N4C3)nccc2c1` (centres unmarked) [Compound 86], the half-inhibitory concentration (IC50) was below 50 nM.

As to `COc1ccc2c(OC3CC4C(=O)NC5(C(=O)NS(=O)(=O)C6CC6)CC5C=CCCCOCC(NC(=O)NC5CCCC5)C(=O)N4C3)nccc2c1` (centres unmarked) [Compound 87], the IC50 was below 50 nM.

Turning to `COc1ccc2c(OC3CC4C(=O)NC5(C(=O)NS(=O)(=O)C6CC6)CC5C=CCCCOCC(NC(=O)OCC(C)(C)C)C(=O)N4C3)nccc2c1` (centres unmarked) [Compound 88], the IC50 is below 50 nM.

In the case of `COc1ccc2c(OC3CC4C(=O)NC5(C(=O)NS(=O)(=O)C6CC6)CC5C=CCCCOCC(NC(=O)OC(C)C)C(=O)N4C3)nccc2c1` (centres unmarked) [Compound 89], the IC50 was below 50 nM.

Regarding `COc1ccc2c(OC3CC4C(=O)NC5(C(=O)NS(=O)(=O)C6CC6)CC5C=CCCCOCC(NC(=O)OC5CCCC5)C(=O)N4C3)nccc2c1` (centres unmarked) [Compound 90], the IC50 is below 50 nM.

Take `COc1ccc2c(OC3CC4C(=O)NC5(C(=O)NS(=O)(=O)C6CC6)CC5C=CCCCOCC(NC(=O)NC(C)(C)C)C(=O)N4C3)nc(-c3ccccc3)cc2c1` (centres unmarked) [Compound 92]: the 50% inhibitory concentration (IC50) is below 50 nM.

In the case of `COc1ccc2c(OC3CC4C(=O)NC5(C(=O)NS(=O)(=O)C6CC6)CC5C=CCCCOCC(NC(=O)N5CCCC5)C(=O)N4C3)nc(-c3ccccc3)cc2c1` (centres unmarked) [Compound 93], the half-maximal inhibitory concentration (IC50) is below 50 nM.

In the case of `COc1ccc2c(OC3CC4C(=O)NC5(C(=O)NS(=O)(=O)C6CC6)CC5C=CCCCOCC(NC(=O)OC5CCCC5)C(=O)N4C3)nc(-c3ccccc3)cc2c1` (centres unmarked) [Compound 94], the 50% inhibitory concentration (IC50) was below 50 nM.

On to `COc1ccc2c(OC3CC4C(=O)NC5(C(=O)NS(=O)(=O)C6CC6)CC5C=CCCCOCC(NC(=O)OCC(C)(C)C)C(=O)N4C3)nc(-c3ccccc3)cc2c1` (centres unmarked) [Compound 95], for which the IC50 is below 50 nM.

Take `COc1ccc2c(OC3CC4C(=O)NC5(C(=O)NS(=O)(=O)C6CC6)CC5C=CCCCOCC(NC(=O)OC(C)C)C(=O)N4C3)nc(-c3ccccc3)cc2c1` (centres unmarked) [Compound 96]: the half-maximal inhibitory concentration (IC50) is below 50 nM.

Regarding `COc1ccc2c(OC3CC4C(=O)NC5(C(=O)NS(=O)(=O)C6CC6)CC5C=CCOCCCC(NC(=O)OC(C)C)C(=O)N4C3)nc(-c3ccccc3)cc2c1` (centres unmarked) [Compound 98], the IC50 is below 50 nM.

On to `COc1ccc2c(OC3CC4C(=O)NC5(C(=O)NS(=O)(=O)C6CC6)CC5C=CCOCCCC(NC(=O)OC5CCCC5)C(=O)N4C3)nc(-c3ccccc3)cc2c1` (centres unmarked) [Compound 99], for which the half-maximal inhibitory concentration (IC50) is below 50 nM.

Take `COc1ccc2c(OC3CC4C(=O)NC5(C(=O)NS(=O)(=O)C6CC6)CC5C=CCOCCCC(NC(=O)N5CCCC5)C(=O)N4C3)nc(-c3ccccc3)cc2c1` (centres unmarked) [Compound 100]: the IC50 was below 50 nM.

`COc1ccc2c(OC3CC4C(=O)NC5(C(=O)NS(=O)(=O)C6CC6)CC5C=CCOCCCC(NC(=O)NC(C)(C)C)C(=O)N4C3)nc(-c3ccccc3)cc2c1` (centres unmarked) [Compound 102]: the IC50 was below 50 nM.

Regarding `COc1ccc2c(OC3CC4C(=O)NC5(C(=O)NS(=O)(=O)C6CC6)CC5C=CCOCCCC(NC(=O)OCC(C)(C)C)C(=O)N4C3)nc(-c3ccccc3)cc2c1` (centres unmarked) [Compound 103], the half-maximal inhibitory concentration (IC50) is below 50 nM.

`COc1ccc2c(OC3CC4C(=O)NC5(C(=O)NS(=O)(=O)C6CC6)CC5C=CCOCCCC(NC(=S)NC5CC5)C(=O)N4C3)nc(-c3ccccc3)cc2c1` (centres unmarked) [Compound 104]: the IC50 is below 50 nM.

As for `COc1ccc2c(OC3CC4C(=O)NC5(C(=O)NS(=O)(=O)C6CC6)CC5C=CCOCCCC(NC(=O)Nc5ccc(C#N)cc5)C(=O)N4C3)nc(-c3ccccc3)cc2c1` (centres unmarked) [Compound 105], the half-inhibitory concentration (IC50) was below 50 nM.

Regarding `COc1ccc2c(OC3CC4C(=O)NC5(C(=O)NS(=O)(=O)C6CC6)CC5C=CCOCCCC(NC(=O)N5CCNC5=O)C(=O)N4C3)nc(-c3ccccc3)cc2c1` (centres unmarked) [Compound 106], the IC50 is below 50 nM.

With `COc1ccc2c(OC3CC4C(=O)NC5(C(=O)NS(=O)(=O)C6CC6)CC5C=CCCCOCC(NC(=O)NC(C)(C)C)C(=O)N4C3)nc(-c3ccc(N(C)C)cc3)cc2c1` (centres unmarked) [Compound 108], the IC50 is below 50 nM.

As to `COc1ccc2c(OC3CC4C(=O)NC5(C(=O)NS(=O)(=O)C6CC6)CC5C=CCCCOCC(NC(=O)OC(C)C)C(=O)N4C3)nc(-c3ccc(N(C)C)cc3)cc2c1` (centres unmarked) [Compound 109], the IC50 was below 50 nM.

Take `COc1ccc2c(OC3CC4C(=O)NC5(C(=O)NS(=O)(=O)C6CC6)CC5C=CCCCOCC(NC(=O)OC5CCCC5)C(=O)N4C3)nc(-c3ccc(N(C)C)cc3)cc2c1` (centres unmarked) [Compound 110]: the IC50 is below 50 nM.

Regarding `COc1ccc2c(OC3CC4C(=O)NC5(C(=O)NS(=O)(=O)C6CC6)CC5C=CCCCOCC(NC(=O)N5CCCC5)C(=O)N4C3)nc(-c3ccc(N(C)C)cc3)cc2c1` (centres unmarked) [Compound 111], the half-maximal inhibitory concentration (IC50) was below 50 nM.

Regarding `CNc1ccc(-c2cc3cc(OC)ccc3c(OC3CC4C(=O)NC5(C(=O)NS(=O)(=O)C6CC6)CC5C=CCOCCCC(NC(=O)OC(C)(C)C)C(=O)N4C3)n2)cc1` (centres unmarked) [Compound 113], the IC50 was below 50 nM.

Regarding `COc1ccc2c(OC3CC4C(=O)NC5(C(=O)NS(=O)(=O)C6CC6)CC5C=CCOCCCC(NC(=O)OC(C)(C)C)C(=O)N4C3)nc(-c3ccc(N(C)C=O)cc3)cc2c1` (centres unmarked) [Compound 114], the half-maximal inhibitory concentration (IC50) is below 50 nM.

Regarding `COc1ccc2c(OC3CC4C(=O)NC5(C(=O)NS(=O)(=O)C6(C)CC6)CC5C=CCCCSCC(NC(=O)OC(C)(C)C)C(=O)N4C3)nccc2c1` (centres unmarked) [Compound 115], the concentration for half-maximal inhibition (IC50) is below 50 nM.

Turning to `COc1ccc2c(OC3CC4C(=O)NC5(C(=O)NS(=O)(=O)C6CC6)CC5C=CCCCSCC(N)C(=O)N4C3)nccc2c1` (centres unmarked) [Compound 117], the IC50 was in the range of 50 to 500 nM.

`CCSC(=O)NC1CCCCCC=CC2CC2(C(=O)NS(=O)(=O)C2CC2)NC(=O)C2CC(Oc3nccc4ccccc34)CN2C1=O` (centres unmarked) [Compound 118]: the concentration for half-maximal inhibition (IC50) is below 50 nM.

`O=CNC1CCCCCC=CC2CC2(C(=O)NS(=O)(=O)C2CC2)NC(=O)C2CC(Oc3nccc4ccccc34)CN2C1=O` (centres unmarked) [Compound 119]: the 50% inhibitory concentration (IC50) was below 50 nM.

On to `CCC1(S(=O)(=O)NC(=O)C23CC2C=CCCCSCC(NC(=O)OC(C)(C)C)C(=O)N2CC(Oc4nccc5cc(OC)ccc45)CC2C(=O)N3)CC1` (centres unmarked) [Compound 121], for which the half-maximal inhibitory concentration (IC50) is below 50 nM.

For `CC1(COC(=O)NC2CCCCCC=CC3CC3(C(=O)NS(=O)(=O)C3CC3)NC(=O)C3CC(Oc4nccc5ccccc45)CN3C2=O)CC1` (centres unmarked) [Compound 122], the half-maximal inhibitory concentration (IC50) is below 50 nM.

Regarding `CC(=O)C(C)(C)OC(=O)NC1CCCCCC=CC2CC2(C(=O)NS(=O)(=O)C2CC2)NC(=O)C2CC(Oc3nccc4ccccc34)CN2C1=O` (centres unmarked) [Compound 123], the 50% inhibitory concentration (IC50) is below 50 nM.

In the case of `CC(C)(OC(=O)NC1CCCCCC=CC2CC2(C(=O)NS(=O)(=O)C2CC2)NC(=O)C2CC(Oc3nccc4ccccc34)CN2C1=O)C(Cl)(Cl)Cl` (centres unmarked) [Compound 124], the concentration for half-maximal inhibition (IC50) is below 50 nM.

Regarding `CCC(C)(C)OC(=O)NC1CCCCCC=CC2CC2(C(=O)NS(=O)(=O)C2CC2)NC(=O)C2CC(Oc3nccc4ccccc34)CN2C1=O` (centres unmarked) [Compound 125], the half-inhibitory concentration (IC50) is below 50 nM.

Regarding `CC(C)(C)NC(=O)N[C@H]1CCCCC/C=C\[C@@H]2C[C@@]2(C(=O)NS(=O)(=O)C2CC2)NC(=O)[C@@H]2C[C@@H](Oc3nccc4ccccc34)CN2C1=O` [Compound 126], the half-maximal inhibitory concentration (IC50) is below 50 nM.

`O=C(NC1CCCC1)NC1CCCCCC=CC2CC2(C(=O)NS(=O)(=O)C2CC2)NC(=O)C2CC(Oc3nccc4ccccc34)CN2C1=O` (centres unmarked) [Compound 127]: the IC50 was below 50 nM.

Turning to `CC(C)NC(=O)NC1CCCCCC=CC2CC2(C(=O)NS(=O)(=O)C2CC2)NC(=O)C2CC(Oc3nccc4ccccc34)CN2C1=O` (centres unmarked) [Compound 128], the half-inhibitory concentration (IC50) was below 50 nM.

Turning to `CC(C)(C)CC(C)(C)NC(=O)NC1CCCCCC=CC2CC2(C(=O)NS(=O)(=O)C2CC2)NC(=O)C2CC(Oc3nccc4ccccc34)CN2C1=O` (centres unmarked) [Compound 129], the IC50 was below 50 nM.

For the compound `CC(C)(C)OC(=O)NC1CCCCCC=CC2CC2(C(=O)NS(=O)(=O)C2CC2)NC(=O)C2CC(Oc3nccc4c(Cl)cccc34)CN2C1=O` (centres unmarked) [Compound 130], the IC50 was below 50 nM.

Take `COc1ccc2c(OC3CC4C(=O)NC5(C(=O)NS(=O)(=O)C6CC6)CC5C=CCCCCCC(NC(=O)OC(C)(C)C)C(=O)N4C3)nccc2c1F` (centres unmarked) [Compound 132]: the half-inhibitory concentration (IC50) is below 50 nM.
